Laboratory results taken from the NIST ThermoML archive (doi:10.1021/je060271a).
Several values for one entry are separate records, joined by “and”; a condition that tells them apart may be missing. Equal entries are not always repeated.

Settings: 303.16 K, Liquid, Vibrating tube method

CCCCCC(=O)OCC(COC(=O)CCCCC)(COC(=O)CCCCC)COC(=O)CCCCC [pentaerythritol tetrahexanoate]
Settings | mass density
291.9 kPa | 988.7 kg/m3
292.2 kPa | 988.5 kg/m3
292.6 kPa | 988.6 kg/m3
292.9 kPa | 988.6 kg/m3
297.1 kPa | 988.4 kg/m3
297.8 kPa | 988.5 kg/m3
298.1 kPa | 988.6 kg/m3
298.5 kPa | 988.5 kg/m3
298.7 kPa | 988.6 kg/m3
299.2 kPa | 988.5 kg/m3
299.3 kPa | 988.6 kg/m3
299.9 kPa | 988.4 kg/m3 and 988.6 kg/m3
300.4 kPa | 988.6 kg/m3
300.7 kPa | 988.6 kg/m3
301.1 kPa | 988.6 kg/m3
301.2 kPa | 988.6 kg/m3
301.6 kPa | 988.6 kg/m3
302 kPa | 988.5 kg/m3
302.1 kPa | 988.5 kg/m3
302.7 kPa | 988.6 kg/m3
303 kPa | 988.5 kg/m3
303.2 kPa | 988.5 kg/m3
303.7 kPa | 988.5 kg/m3
303.9 kPa | 988.6 kg/m3
304.2 kPa | 988.5 kg/m3
304.5 kPa | 988.6 kg/m3
304.7 kPa | 988.6 kg/m3
305.1 kPa | 988.5 kg/m3
306.3 kPa | 988.5 kg/m3
306.6 kPa | 988.6 kg/m3
307 kPa | 988.6 kg/m3
307.3 kPa | 988.6 kg/m3
307.8 kPa | 988.5 kg/m3
307.9 kPa | 988.5 kg/m3
308.2 kPa | 988.5 kg/m3
308.7 kPa | 988.6 kg/m3
309.1 kPa | 988.5 kg/m3
309.4 kPa | 988.6 kg/m3
309.8 kPa | 988.5 kg/m3
310.1 kPa | 988.5 kg/m3
310.8 kPa | 988.5 kg/m3
311 kPa | 988.5 kg/m3
311.3 kPa | 988.6 kg/m3
311.7 kPa | 988.6 kg/m3
311.9 kPa | 988.5 kg/m3
312.2 kPa | 988.6 kg/m3
312.5 kPa | 988.6 kg/m3
313.6 kPa | 988.6 kg/m3
314.6 kPa | 988.6 kg/m3
315.8 kPa | 988.6 kg/m3
316.7 kPa | 988.5 kg/m3
317.1 kPa | 988.4 kg/m3
317.2 kPa | 988.6 kg/m3
317.4 kPa | 988.5 kg/m3
317.9 kPa | 988.5 kg/m3
318.1 kPa | 988.6 kg/m3
318.5 kPa | 988.6 kg/m3
318.6 kPa | 988.6 kg/m3
318.8 kPa | 988.5 kg/m3
319 kPa | 988.5 kg/m3
319.3 kPa | 988.5 kg/m3
319.5 kPa | 988.5 kg/m3
319.8 kPa | 988.5 kg/m3
320.4 kPa | 988.5 kg/m3
320.9 kPa | 988.5 kg/m3
321.2 kPa | 988.5 kg/m3
321.9 kPa | 988.6 kg/m3
322.3 kPa | 988.6 kg/m3
324.7 kPa | 988.5 kg/m3
325.6 kPa | 988.6 kg/m3
326.1 kPa | 988.6 kg/m3
326.6 kPa | 988.4 kg/m3 and 988.6 kg/m3
327 kPa | 988.6 kg/m3
327.1 kPa | 988.6 kg/m3
327.3 kPa | 988.6 kg/m3
327.7 kPa | 988.6 kg/m3
328.4 kPa | 988.5 kg/m3
328.9 kPa | 988.6 kg/m3
329.1 kPa | 988.6 kg/m3
333.2 kPa | 988.6 kg/m3
333.9 kPa | 988.6 kg/m3
339.3 kPa | 988.7 kg/m3
339.7 kPa | 988.6 kg/m3
340.3 kPa | 988.7 kg/m3
341 kPa | 988.6 kg/m3
344.3 kPa | 988.5 kg/m3
344.5 kPa | 988.7 kg/m3
344.7 kPa | 988.6 kg/m3
345.2 kPa | 988.6 kg/m3
345.5 kPa | 988.6 kg/m3
346.2 kPa | 988.5 kg/m3
346.6 kPa | 988.7 kg/m3
346.9 kPa | 988.6 kg/m3
347.3 kPa | 988.5 kg/m3
347.6 kPa | 988.6 kg/m3
348.2 kPa | 988.7 kg/m3
348.7 kPa | 988.6 kg/m3
349.2 kPa | 988.5 kg/m3 and 988.6 kg/m3
349.4 kPa | 988.6 kg/m3
349.9 kPa | 988.5 kg/m3
350.6 kPa | 988.5 kg/m3
350.9 kPa | 988.6 kg/m3
351.5 kPa | 988.7 kg/m3 and 988.6 kg/m3
352 kPa | 988.6 kg/m3
352.8 kPa | 988.6 kg/m3
353.2 kPa | 988.8 kg/m3 and 988.5 kg/m3
353.4 kPa | 988.6 kg/m3
353.5 kPa | 988.6 kg/m3
354.1 kPa | 988.7 kg/m3
354.2 kPa | 988.6 kg/m3
354.6 kPa | 988.6 kg/m3
354.9 kPa | 988.6 kg/m3
358.1 kPa | 988.6 kg/m3
358.4 kPa | 988.7 kg/m3
358.9 kPa | 988.6 kg/m3
359.4 kPa | 988.6 kg/m3
359.8 kPa | 988.6 kg/m3
360.3 kPa | 988.6 kg/m3 and 988.5 kg/m3
364.5 kPa | 988.6 kg/m3
365 kPa | 988.7 kg/m3
365.2 kPa | 988.5 kg/m3
365.9 kPa | 988.7 kg/m3
366.2 kPa | 988.7 kg/m3
366.6 kPa | 988.7 kg/m3
367.3 kPa | 988.8 kg/m3
367.6 kPa | 988.6 kg/m3
368 kPa | 988.6 kg/m3
368.3 kPa | 988.6 kg/m3
368.6 kPa | 988.7 kg/m3
369.5 kPa | 988.6 kg/m3
369.9 kPa | 988.6 kg/m3
370 kPa | 988.5 kg/m3
370.2 kPa | 988.6 kg/m3
371.1 kPa | 988.6 kg/m3
371.3 kPa | 988.6 kg/m3
371.6 kPa | 988.7 kg/m3
372.1 kPa | 988.7 kg/m3
372.5 kPa | 988.5 kg/m3
373 kPa | 988.6 kg/m3
373.5 kPa | 988.7 kg/m3
374.2 kPa | 988.6 kg/m3
374.6 kPa | 988.6 kg/m3
374.9 kPa | 988.6 kg/m3
375.4 kPa | 988.7 kg/m3
